In the assay the test system is Plasmodium falciparum. Briefly: GSK_TCMDC: Inhibition of Plasmodium falciparum 3D7 in whole erythrocytes, using parasite LDH activity as an index of growth. It counts as functional, organism-based. The note with it: Plasmodium falciparum, 3D7.
The compound `N=C(N)Nc1ccc(Cc2ccc(NC(=N)N)cc2)cc1` returned an XC50 of 255 nM. As for `COc1ccc(Nc2nccc(NCCNC(=O)Nc3ccccc3F)n2)cc1`, the figure is 1320 nM. As for `CCCC(C)Nc1nc(C)cc(NCCC(=O)Nc2ccccc2)n1` (stereo not given), the figure is 959 nM. With `O=C(Cc1c[nH]cn1)Nc1ccc(-c2cccc(-c3nc4cc(F)ccc4[nH]3)c2)cc1`, the XC50 turned out to be 797 nM. As for `CC(C)c1cc2c(ccc3nc(N)nc(N)c32)o1`, the figure is 85.7 nM; as for `COc1cc(-c2cc(-c3ccc(S(C)(=O)=O)cc3)cnc2N)ccc1O`, 101 nM. For the compound `Cc1c(C)n(C2CCCCC2)c2ncnc(OC3CCN(CC(=O)N4CCCC4)CC3)c12`, the XC50 is 1450 nM. Under `Cc1cccc2nc(-c3cccc(-c4cccc(CNCCN5CCNCC5)c4)c3)[nH]c12` stands 970 nM. Under `Cc1cccc2nc(-c3ccc(-c4cccc(CN5CCCC5CN)c4)cc3)[nH]c12` (stereo not given) stands 914 nM; under `CC(=O)Nc1nc(C(=O)Nc2ccc(-c3cccc(-c4nc5cccc(C)c5[nH]4)c3)cc2)cs1`, 232 nM; under `CCN(CC)CCCCNc1cc(-c2[nH]c(-c3c(Cl)cccc3Cl)nc2-c2ccc3cc(OC)ccc3c2)ccn1`, 958 nM.

`O=C(Cc1cccc(O)c1)Nc1ccc(-c2cccc(-c3nc4cc(C(F)(F)F)ccc4[nH]3)c2)cc1` registered an XC50 of 983 nM.

Turning to `O=C(/C=C/c1ccc(Cl)c(Cl)c1)N1CCN(C(=O)Nc2ccc(F)c(Cl)c2)CC1`, the XC50 came to 724 nM. As for `O=C(NC1CCN(Cc2ccccc2)CC1)c1ccc(-c2nc3cc4ccccc4cc3[nH]2)s1`, the figure is 601 nM; as for `COCCNCc1cccc(-c2cc3nccc(Nc4ccc(Oc5ccccc5)cc4)c3cc2Cl)c1`, 1380 nM; as for `Cc1ccc2cc(NCCCCCCCCON3C(N)=NC(N)=NC34CCCCC4)ccc2n1`, 163 nM.

`CNCCNCc1ccc(-c2ccc(-c3nc4cccc(C)c4[nH]3)cc2)cc1`: the XC50 is 670 nM. As for `CS(=O)(=O)CCNCc1cccc(-c2ccc3c(Nc4cc(O)c(Cl)cc4F)ccnc3c2)c1`, the figure is 254 nM; as for `COc1ccc2nccc([C@@H](O)CN3CCC(NC(=O)c4cccc(C(=O)c5ccccc5)c4)CC3)c2c1`, 685 nM. Under `O=C(Nc1ccc(-c2csc3nccn23)cc1)c1ccc(Cl)cc1` stands 584 nM. Under `O=C(C=Cc1ccc(Cl)c(Cl)c1)NCCCCCN1CCCC(CCCNC(=O)c2cccs2)C1` (stereo not given) stands 1300 nM; under `CCC1(C)N=C(N)N=C(N)N1c1ccccc1` (stereo not given), 792 nM. For `CC(C)CCNCc1ccc(OCc2ccccc2COc2ccc(CNCCC(C)C)cc2I)c(I)c1`, the XC50 is 425 nM. Under `Cc1ccc(-c2cnc(N)c3cc(-c4ccnc(N)n4)ccc23)cc1` stands 808 nM. As for `COc1ccc(NC(=O)c2ccc(-c3cc(NC(=O)c4ccnc(N5CCCC5)c4)ccc3C)s2)cc1N1CCN(C)CC1`, the figure is 245 nM; as for `Cc1cc(CNCC2CCC(CNCCCc3ccccc3)CC2)ccc1O` (stereo not given), 871 nM; as for `Cn1cncc1CCN(Cc1ccc(-c2ccc(C(F)(F)F)cc2)cc1)C(=O)Cn1c(SCc2cccc(F)c2F)cc(=O)c2ccccc21`, 990 nM. As for `CCOC(=O)c1cn(CC)c2cc(N(C)CCc3ccc(OC)c(OC)c3)c(F)cc2c1=O`, the figure is 425 nM; as for `Cc1ccc(C(CC(=O)Nc2nccs2)c2ccc(OC(C)C)cc2)cc1` (stereo not given), 479 nM; as for `CCOc1ccccc1C1CCN(CCCCNC(=O)c2ccc(NC(=O)c3ccc(Cl)cc3)cc2)CC1`, 846 nM. With `Cc1ccc(NC(=O)c2cn(-c3ccccc3)nc2-c2ccc(F)cc2)cc1[N+](=O)[O-]`, the XC50 came out at 1000 nM. As for `Cc1onc(-c2ccccc2)c1C(=O)Nc1nc(-c2ccccn2)nc2ccsc12`, the figure is 685 nM; as for `CC(=O)Nc1ccc(OCCN(CC(F)(F)F)c2ccc(C#N)cc2C(F)(F)F)cc1`, 767 nM. Under `Cc1cc(O)c(C(C)C)cc1C1(c2cc(C(C)C)c(O)cc2C)OC(=O)c2ccccc21` stands 871 nM; under `CN1CCC(NCc2cccc(-c3ccc(S(=O)(=O)NCCN4CCCC4)c(F)c3)c2)CC1`, 1010 nM.

(Values after ChEMBL document CHEMBL1157539, “Thousands of chemical starting points for antimalarial lead identification” (Nature, 2010).)
